Test results taken from patent US6365598B1, “Pyrroloquinolines for treatment of obesity” (Vernalis Research Limited, priority 1998, dated 2002).
Structures can show the parent of a compound that is named as a salt.

Legend:
human 5-HT2B receptors = biological target: T1, human 5-HT2B receptors (Homo sapiens, UniProt P41595); test: Binding to 5-HT2B receptor, [3H]-5-HT, CHO cell line; conditions: read-out: Ki (2B)
T1 construct: expressed in transfected cells; host or cells: CHO cell line
Method: (§1) 1. Binding to Serotonin Receptors
(§2) The binding of compounds of formula (I) to serotonin receptors was determined in vitro by standard methods. The preparations were investigated in accordance with the assays given hereinafter.
Method (b): For the binding to the 5-HT2B receptor the 5-HT2B receptors were radiolabeled with [^3H]-5-HT. The affinity of the compounds for human 5-HT2B receptors in a CHO cell line was determined according to the procedure of K. Schmuck, C. Ullmer, P. Engels and H. Lubbert, FEBS Lett., 1994, 342, 85-90.

5-HT2c receptors [1] = biological target: T2, 5-HT2c receptors (Homo sapiens, UniProt P28335); test: Binding to 5-HT2C receptor, [3H]-5-HT, CHO cell line; parameters: expressed in transfected cells; host or cells: CHO cell line; conditions: read-out: Ki (2C)
T2 sequence (P28335 33-458): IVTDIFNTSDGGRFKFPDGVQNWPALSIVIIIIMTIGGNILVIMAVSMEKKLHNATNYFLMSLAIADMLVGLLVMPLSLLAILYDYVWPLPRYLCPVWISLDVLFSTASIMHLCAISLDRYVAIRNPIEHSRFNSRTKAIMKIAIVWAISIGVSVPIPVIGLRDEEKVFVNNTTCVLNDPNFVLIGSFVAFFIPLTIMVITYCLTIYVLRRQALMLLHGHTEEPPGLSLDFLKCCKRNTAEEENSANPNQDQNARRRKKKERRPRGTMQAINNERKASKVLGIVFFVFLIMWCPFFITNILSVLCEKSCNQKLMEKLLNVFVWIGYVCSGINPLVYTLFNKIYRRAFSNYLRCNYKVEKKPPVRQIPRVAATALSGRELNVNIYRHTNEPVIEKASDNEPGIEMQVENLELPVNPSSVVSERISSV
Method: as §1, §2
Method (a): For the binding to the 5-HT2c, receptor the 5-HT2c receptors were radiolabeled with [^3H]-5-HT. The affinity of the compounds for 5-HT2c receptors in a CHO cell line was determined according to the procedure of D. Hoyer, G. Engel and H. O. Kalkman, European J. Pharmacol., 1985, 118,13-23.

5-HT2A receptors [2] = biological target: T3, 5-HT2A receptors (Homo sapiens, UniProt P28223); test: Binding to 5-HT2A receptor, [125I]-DOI, CHO cell line; parameters: expressed in transfected cells; host or cells: CHO cell line; conditions: read-out: Ki (2A)
T3 sequence (P28223 whole entry): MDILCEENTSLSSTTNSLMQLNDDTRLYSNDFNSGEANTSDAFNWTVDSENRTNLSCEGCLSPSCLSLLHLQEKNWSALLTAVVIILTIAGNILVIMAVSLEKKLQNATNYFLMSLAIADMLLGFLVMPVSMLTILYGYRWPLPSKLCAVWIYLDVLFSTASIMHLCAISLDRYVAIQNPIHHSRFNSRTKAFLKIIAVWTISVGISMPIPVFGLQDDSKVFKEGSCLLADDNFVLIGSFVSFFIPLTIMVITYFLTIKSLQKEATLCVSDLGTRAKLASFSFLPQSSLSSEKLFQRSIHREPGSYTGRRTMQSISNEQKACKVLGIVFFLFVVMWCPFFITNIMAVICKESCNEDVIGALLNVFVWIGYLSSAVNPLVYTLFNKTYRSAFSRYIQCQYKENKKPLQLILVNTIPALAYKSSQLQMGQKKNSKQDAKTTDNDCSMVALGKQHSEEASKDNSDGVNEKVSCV
Method: as §1, §2
Method (c): For the binding to the 5-HT2A receptor the 5-HT2A receptors were radiolabeled with [^125I]-DOI. The affinity of the compounds for 5-HT2A receptors in a CHO cell line was determined according to the procedure of D. J. McKenna and S. J. Peroutka, J. Neurosci., 1989, 9, 3482-90.

food deprived animals = test: Regulation of feeding behaviour: food consumption in food deprived animals; format: in vivo; conditions: 2 hours after a dose of 10 mg/kg s.c.
Method: 4. Regulation of Feeding Behaviour
The in vivo activity of compounds of formula (I) on feeding behaviour was assayed by measuring food consumption in food deprived animals.
Test compounds were assessed following acute administration. Each study utilised a between-subjects design (typically n=8) and compared the effects of doses of the test agent to those of vehicle and a positive control.
The anorectic drug d-fenfluramine normally serves as a positive control. The route of drug administration, drug volume and injection-test-interval are dependent upon the compounds used. A palatable wet mash, made by adding powdered lab chow and water in a ratio of 1:2 and mixing to a smooth consistency, was presented in 120 ML glass jars for 60 minutes each day. Intake was measured by weighing before and after each session. Care was taken to collect all spillage. Animals were allowed to habituate to the wet mash meal for 10 days. After drug administration, animals were allowed to consume the wet mash. Food consumption was assayed at pre-determined time points (typically 1, 2 and 4 hours after administration). Food intake data were subjected to one-way analysis of variance (ANOVA) with drug as a between-subjects factor. […] All statistical analyses were performed using Statistica Software, Version 5.0 (Statsoft Inc.) and Microsoft Excel 7.0 (Microsoft Corp.).

5-HT2A receptors [3] = biological target: T3, 5-HT2A receptors; test: Functional activity, FLIPR calcium assay, CHO cells expressing human 5-HT2A; format: cell-based; parameters: expressed in transfected cells; host or cells: CHO cells; conditions: for EC50: FLIPR, CHO cells, Fluo-3-AM, read-out: h5-HT2A EC50; for h5-HT2A Relative Efficacy (%): maximum fluorescent signal relative to 10 μM 5-HT (defined as 100%)
Method: (§3) The functional activity of compounds of formula (I) was assayed using a Fluorimetric Imaging Plate reader (FLIPR). CHO cells expressing the human 5-HT2C or human 5-HT2A receptors were counted and plated into standard 96 well microtitre plates on the day before testing to give a confluent monolayer. The cells were then dye loaded with the calcium sensitive dye, Fluo-3-AM. Unincorporated dye was removed using an automated cell washer to leave a total volume of 100 μL/well of assay buffer (Hanks balanced salt solution containing 20 mM Hepes and 2.5 mM probenecid). The drug (dissolved in 50 μL of the assay buffer) was added at a rate of 70 μL/sec to each well of the FLIPR 96 well plate during fluorescence measurements. The measurements were taken at 1 sec intervals and the maximum fluorescent signal was measured (approx 10-15 secs after drug addition) and compared with the response produced by 10 μM 5-HT (defined as 100%) to which it was expressed as a percentage response (relative efficacy). Dose response curves were constructed using Graphpad Prism (Graph Software Inc.).

5-HT2c receptors [4] = biological target: T2, 5-HT2c receptors; test: Functional activity, FLIPR calcium assay, CHO cells expressing human 5-HT2C; format: cell-based; parameters: expressed in transfected cells; host or cells: CHO cells; conditions: for EC50: FLIPR, CHO cells, Fluo-3-AM, read-out: h5-HT2C EC50; for h5-HT2C Relative Efficacy (%): maximum fluorescent signal relative to 10 μM 5-HT (defined as 100%)
Method: as §3

T1 sequence (P41595 whole entry): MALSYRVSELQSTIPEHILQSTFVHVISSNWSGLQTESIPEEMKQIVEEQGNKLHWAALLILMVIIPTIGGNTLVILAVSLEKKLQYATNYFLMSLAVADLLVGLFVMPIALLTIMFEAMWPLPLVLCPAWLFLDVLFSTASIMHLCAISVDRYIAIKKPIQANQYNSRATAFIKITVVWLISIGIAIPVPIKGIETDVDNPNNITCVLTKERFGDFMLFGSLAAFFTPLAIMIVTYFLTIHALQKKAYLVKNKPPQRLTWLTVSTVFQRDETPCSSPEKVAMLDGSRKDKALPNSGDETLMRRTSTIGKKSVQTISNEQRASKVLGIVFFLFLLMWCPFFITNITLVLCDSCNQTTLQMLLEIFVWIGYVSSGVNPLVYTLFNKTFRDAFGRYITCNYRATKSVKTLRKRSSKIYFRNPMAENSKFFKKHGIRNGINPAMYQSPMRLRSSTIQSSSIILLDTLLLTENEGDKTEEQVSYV

Structure (SMILES)	melting point [°C]	Ki (human 5-HT2B receptors) [nM]	Ki (5-HT2c receptors [1]) [nM]	Ki (5-HT2A receptors [2]) [nM]	hypophagia (food consumption) (food deprived animals)	EC50 (5-HT2A receptors [3]) [nM]	h5-HT2A Relative Efficacy (%) (5-HT2A receptors [3])	EC50 (5-HT2c receptors [4]) [nM]	h5-HT2C Relative Efficacy (%) (5-HT2c receptors [4])
COc1nccc2c1ccc1ccn(C[C@H](C)N)c12 (as salt: fumarate)	180 to 182								
C[C@H](N)Cn1ccc2ccc3cnccc3c21 (as salt: fumarate) [Example 4, (S)-1-(1H-Pyrrolo[2,3-f]isoquinolin-1-yl)-2-propylamine fumarate]	165								
C[C@H](N)Cn1ccc2cc(Cl)c3ncccc3c21 (as salt: fumarate) [Example 5, (S)-1-(5-Chloro-1H-pyrrolo[2,3-f]-quinolin-1-yl)-2-propylamine fumarate]	228 to 229								
C[C@H](N)Cn1ccc2ccc3ccncc3c21 (as salt: fumarate) [Example 7, (S)-1-(1H-Pyrrolo[3,2-h]isoquinolin-1-yl)-2-propylamine fumarate]	153 to 154								
C[C@H](N)Cn1ccc2ccc3cccnc3c21 (as salt: fumarate) [Example 8, (S)-1-(1H-Pyrrolo[3,2-h]quinolin-1-yl)-2-propylamine hemifumarate]	212 to 214								
C[C@H](N)Cn1ccc2ccc3ncccc3c21 (as salt: hydrochloride) [Example 1, (S)-1-(1H-Pyrrolo[2,3-f]quinolin-1-yl)-2-propylamine]	222 to 224								
C[C@@H](N)Cn1ccc2ccc3ncccc3c21 (as salt: hydrochloride) [Example 2, (R)-1-(1H-Pyrrolo[2,3-f]quinolin-1-yl)-2-propylamine]	223 to 225								
CC(N)Cn1ccc2ccc3ncccc3c21 (racemic) [Example 3, (RS)-1-(1H-Pyrrolo[2,3-f]quinolin-1-yl)-2-propylamine hydrochloride]		9	24	40					
C[C@H](N)Cn1ccc2ccc3ncccc3c21 [Example 1, (S)-1-(1H-Pyrrolo[2,3-f]quinolin-1-yl)-2-propylamine]		12	9	45	significant hypophagia	360	100	12	93
C[C@@H](N)Cn1ccc2ccc3ncccc3c21 [Example 2, (R)-1-(1H-Pyrrolo[2,3-f]quinolin-1-yl)-2-propylamine]		5	22	37	significant hypophagia	87	96	7	85
C[C@H](N)Cn1ccc2ccc3cnccc3c21 [Example 4, (S)-1-(1H-Pyrrolo[2,3-f]isoquinolin-1-yl)-2-propylamine fumarate]		84	156	173		870	54	142	89
C[C@H](N)Cn1ccc2cc(Cl)c3ncccc3c21 [Example 5, (S)-1-(5-Chloro-1H-pyrrolo[2,3-f]-quinolin-1-yl)-2-propylamine fumarate]						52	80	5	86
C[C@H](N)Cn1ccc2ccc3ccncc3c21 [Example 7, (S)-1-(1H-Pyrrolo[3,2-h]isoquinolin-1-yl)-2-propylamine fumarate]						636	61	36	83
C[C@H](N)Cn1ccc2ccc3cccnc3c21 [Example 8, (S)-1-(1H-Pyrrolo[3,2-h]quinolin-1-yl)-2-propylamine hemifumarate]		88	45	90		1070	31	99	24
C[C@@H](Cn1ccc2ccc3ncccc3c21)NCc1ccc2c(c1)OCO2 [Example 9, (S)-[1-(1H-Pyrrolo[2,3-f]quinolin-1-yl)-2-propyl]-(3,4-methylenedioxybenzyl)amine bis-fumarate]						1300	65	85	90
